Reference: patent US8003649B2 (AstraZeneca AB, priority 2007, dated 2011)

Legend:
[1] = molecular target: T1, rat GST-tagged AR-LBD (Rattus norvegicus, UniProt P15207); test: LanthaScreen TR-FRET AR Binding Assay; settings: n = 2; 12-point concentration response up to 100 μM
T1 construct: purchased Invitrogen
T1 sequence (P15207 651-882 limits assumed): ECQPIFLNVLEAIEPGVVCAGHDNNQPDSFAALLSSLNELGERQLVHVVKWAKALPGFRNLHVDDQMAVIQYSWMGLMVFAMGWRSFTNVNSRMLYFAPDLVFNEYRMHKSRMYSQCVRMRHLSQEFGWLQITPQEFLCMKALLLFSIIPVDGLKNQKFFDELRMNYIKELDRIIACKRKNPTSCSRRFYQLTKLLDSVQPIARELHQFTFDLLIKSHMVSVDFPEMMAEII
Procedure: The ability of compounds to bind to isolated Androgen Receptor Ligand binding domain (AR-LBD) was assessed in competition assays using either a Fluorescence Polarisation (FP) or a LanthaScreen™ Time-Resolved Fluorescence Resonance Energy Transfer (TR-FRET) detection end-point.
For LanthaScreen™ TR-FRET, a suitable fluorophore (Product code PV4294) and rat GST-tagged AR-LBD were purchased from Invitrogen and used to measure compound binding. The assay principle is that AR-LBD is added to a fluorescent ligand to form a receptor/fluorophore complex. A terbium-labelled anti-GST antibody is used to indirectly label the receptor by binding to a GST tag, and competitive binding is detected by a test compounds' ability to displace the fluorescent ligand resulting in a loss of TR-FRET signal between the Tb-anti-GST antibody and the tracer. The assay was performed as follows with all reagent additions carried out using the Thermo Scientific Matrix PlateMate:— • 1. […]
Compounds were dosed directly from a compound source microplate containing serially diluted compound (4 wells containing 10 mM, 0.1 mM, 1 μM and 10 nM final compound respectively) to an assay microplate using the Labcyte Echo 550. […] Competitive AR binding was expressed as an IC50 value. This was determined by calculation of the concentration of compound that was required to give a 50% reduction in tracer compound binding to AR-LBD.

[2] = molecular target: T2, Androgen Receptor (AR) (Homo sapiens, UniProt P10275, T878A); test: LNCaP Androgen Receptor Down-regulation Cell Assay (immunofluorescence end point); assay type: cell-based; settings: LNCaP prostate carcinoma cells, compound incubation 20-22 hours, 50% reduction of the AR signal; read-out: Androgen Receptor Down-regulation Assay (a) IC50/μM
T2 construct: cell based immuno-fluorescence assay using the LNCaP prostate epithelial cell line; endogenous in cells; host or cells: LNCaP clone FGC (ATCC CRL-1740)
T2 sequence (P10275 1-920 T878A): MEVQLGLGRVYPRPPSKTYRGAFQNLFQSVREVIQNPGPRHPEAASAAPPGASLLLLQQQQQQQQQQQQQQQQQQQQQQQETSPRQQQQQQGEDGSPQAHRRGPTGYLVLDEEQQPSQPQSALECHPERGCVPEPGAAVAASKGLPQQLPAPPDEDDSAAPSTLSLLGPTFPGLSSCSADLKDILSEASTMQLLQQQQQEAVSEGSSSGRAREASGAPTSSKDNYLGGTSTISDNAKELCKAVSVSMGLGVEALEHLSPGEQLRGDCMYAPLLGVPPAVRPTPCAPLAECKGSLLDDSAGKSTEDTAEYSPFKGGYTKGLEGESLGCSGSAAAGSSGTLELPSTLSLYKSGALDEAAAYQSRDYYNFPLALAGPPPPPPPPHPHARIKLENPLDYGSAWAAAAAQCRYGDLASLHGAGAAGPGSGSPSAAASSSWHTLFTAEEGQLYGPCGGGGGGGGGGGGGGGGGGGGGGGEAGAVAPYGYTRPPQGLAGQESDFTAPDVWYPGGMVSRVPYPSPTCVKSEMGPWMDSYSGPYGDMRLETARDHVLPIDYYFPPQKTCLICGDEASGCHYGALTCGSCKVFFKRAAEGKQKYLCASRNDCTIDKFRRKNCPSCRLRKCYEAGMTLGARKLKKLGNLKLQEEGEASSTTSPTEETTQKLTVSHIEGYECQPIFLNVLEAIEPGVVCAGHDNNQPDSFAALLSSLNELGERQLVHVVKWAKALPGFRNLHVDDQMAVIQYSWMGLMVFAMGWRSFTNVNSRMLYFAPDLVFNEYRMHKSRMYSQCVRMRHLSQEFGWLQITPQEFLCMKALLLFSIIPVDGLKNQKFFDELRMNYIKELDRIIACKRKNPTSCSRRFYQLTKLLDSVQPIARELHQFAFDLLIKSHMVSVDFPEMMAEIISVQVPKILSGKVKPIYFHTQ
Outline: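 AR loss reported as IC50 from curve fits of fluorescence dose-response data, with AR immunostained and read by laser-scanning cytometry. Compound exposure was 20-22 h at 37° C in LNCaP cells grown in 5% charcoal-stripped FBS and plated overnight beforehand.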

SMILES | IC50 [1] [µM] | DC50 [2] [µM]
OC1(c2cccnc2)CCN(c2ccc3nnc(C(F)(F)F)n3n2)CC1 [Example 511, 4-pyridin-3-yl-1-[3-(trifluoromethyl)[1,2,4]triazolo[4,3-b]pyridazin-6-yl]piperidin-4-ol] | > 100 | –
Cn1nccc1CCOc1ccc(C2CCN(c3ccc4nnc(C(F)(F)F)n4n3)CC2)cc1 [Example 513, 6-[4-[4-[2-(1-methyl-1H-pyrazol-5-yl)ethoxy]phenyl]piperidin-1-yl]-3-(trifluoromethyl)[1,2,4]triazolo[4,3-b]pyridazine] | 1.3 | 0.24
